The test system of data set [1] is circulating CFU-GM, BFU-E, CFU-GEMM progenitor cells and nucleated cells. The data set can be described thus: Progenitor/stem cell mobilization in mice after single subcutaneous injection. The data set is classed as in vivo, C3H/HeJ mice. On the procedure:
A further study was conducted to determine whether X4P-001 mobilizes progenitor/stem cells in mice. All experiments were performed in […] mice. X4P-001 and AMD3 100/plerixafor were administered via single subcutaneous injection at the doses described below. The mobilization capacity of X4P-001 was assessed by the numbers of granulocyte-macrophage (CFU-GM), erythroid (BFU-E) and multipotential (CFU-GEMM) progenitor cells per mL of blood. The progenitors were stimulated to form colonies in vitro with the combination of 1 U/mL rhu EPO, 50 ng/mL rmu SLF, 5% vol/vol pokeweed mitogen mouse spleen cell conditioned medium (PWMSCM), and 0.1 mM hemin. Plates were scored 7 days after incubation at 37° C., […] and in a humidified chamber.
In the first experiment (data shown in Table 7), mice received a dose of 5 mg/kg- and the number of progenitors in the circulating blood was measured at various time points (0.25, 0.5, 1, 2, 6 and 24 hours).
An X4P-001 dose-response was performed by measurement of the number of circulating progenitors in the blood at 1 hour post-injection at various doses (1.5, 2.5, 5, 10 and 20 mg/kg).
A final experiment was performed to compare the progenitor cell mobilization capacity of X4P-001 and AMD3100/plerixafor.

For data set [2] the following is noted: human, in vivo. On the procedure:
In some embodiments, the dose is selected to provide consistent clinically relevant elevations of both ANC and ALC, with low risk of significant adverse effects. Dosage of 400 mg per day BID for 3.5 days (healthy volunteers) (Stone 2007) and 200 mg BID for 8-10 days (healthy volunteers and HIV patients) were well-tolerated with no pattern of adverse events or clinically significant laboratory changes.

For data set [3] the following is noted: 400-mg single-dose subject (Stone, 2007); cited from earlier work.
The conditions of data set [4]: in vivo. The procedure: In certain embodiments, the dosage composition may be provided twice a day in divided dosage, approximately 12 hours apart. In other embodiments, the dosage composition may be provided once daily.
For data set [5], the system named is WBC, neutrophil and lymphocyte counts. The data set can be described thus: Hematologic effects of a single oral dose in the male Beagle dog. It counts as in vivo. The procedure: Three fasted male Beagle dogs received a single dose of X4P-001 in aqueous solution by oral gavage at dose levels of 5, 15, and 35 mg/kg (1 dog per dose level) in a volume of 1 mL/kg. Blood samples (approximately 3 mL each) were obtained at multiple timepoints from each animal by direct venipuncture of the jugular vein and collected using Vacutainer® tubes containing K3EDTA as the anticoagulant. Blood samples were obtained at pre-dose, and 0.25, 0.5, 0.75, 1, 1.5, 2, 3, 4, 7, 12, and 24 hours post-dose. Blood samples were stored at ambient room temperature prior to automated differential analysis.
Body weights were determined prior to dosing on the day of test article administration.
Hematology parameters included the following: • White Blood Cell Count (WBC) • Differential white blood cell count (absolute and relative) • Neutrophil • Lymphocytes • Monocytes • Eosinophils • Basophils • Large Unstained Cells (LUC) • Hematocrit (HCT) • Hemoglobin (HGB) • Mean Corpuscular Hemoglobin (MCH) • Mean Corpuscular Hemoglobin Concentration (MCHC) • Mean Corpuscular Volume (MCV) • Platelet Count (PLT). • Red Blood Cell Count (RBC) Results

Data set [6] concerns hematology and coagulation. Description: 28-day GLP oral (capsule) toxicity study in the Beagle dog with 14-day recovery. The data set is classed as in vivo. The procedure:
A 28-Day GLP oral (capsule) toxicology study was conducted with […]-001 in the male and female beagle dog, and hematology effects were observed, with […]-001 administered twice-daily (at least 7 hours apart) by oral capsule for 28 days. A subset of treated animals was evaluated after a 14-day recovery period. [table] [table]

The target of data set [7] is CXCR4 (Homo sapiens, UniProt P61073). As to conditions: SDF-1α dose/response in calcium flux with increasing X4P-001; cited from earlier work.
Chain of CXCR4 (P61073 whole entry): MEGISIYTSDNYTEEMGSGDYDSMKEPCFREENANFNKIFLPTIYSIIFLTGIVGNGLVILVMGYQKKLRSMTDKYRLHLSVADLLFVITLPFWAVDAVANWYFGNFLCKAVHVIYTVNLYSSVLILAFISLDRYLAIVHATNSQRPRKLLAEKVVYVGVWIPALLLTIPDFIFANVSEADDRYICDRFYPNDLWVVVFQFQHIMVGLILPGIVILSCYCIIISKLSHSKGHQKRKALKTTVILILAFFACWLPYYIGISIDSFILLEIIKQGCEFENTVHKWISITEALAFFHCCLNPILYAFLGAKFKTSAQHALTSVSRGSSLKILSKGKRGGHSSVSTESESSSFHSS
The conditions of data set [8]: cited from earlier work; for Bone pain incidence, as high as: Ferguson 2015 (filgrastim), Kirshner 2012 (pegfilgrastim).
Where [9] appears, read: Table 9 comparison, 5 mg/kg s.c., @ - 60″ (1 h).
Where [10] appears, read: females, 10 mg/kg/d, Day 28, p < 0.05.
[11] abbreviates: females, 30 mg/kg/d, Day 28, p < 0.05.
[12] abbreviates: females, 100 mg/kg/d, Day 28, p < 0.05.
Where [13] appears, read: males, 100 mg/kg/d, Day 28, p < 0.05.
Setting [14] is: Table 7 time course, 5 mg/kg s.c., @ - 2′ (2 h).
Setting [15] is: Table 7 time course, 5 mg/kg s.c., @ - 6′ (6 h).
Setting [16] is: Table 7 time course, 5 mg/kg s.c., @ - 15″ ([…]).
The mark [17] stands for this setting: Table 7 time course, 5 mg/kg s.c., @ - 24′ (24 h).
[18] abbreviates: Table 7 time course, 5 mg/kg s.c., @ - 30″ (0.5 h).
Setting [19] is: Table 7 time course, 5 mg/kg s.c., @ - 60″ (1 h).
Where [20] appears, read: Table 8 dose response, 1 hour post-injection, 1.5 mg/kg.
[21] abbreviates: Table 8 dose response, 1 hour post-injection, 5 mg/kg.
The mark [22] stands for this setting: Table 8 dose response, 1 hour post-injection, 10 mg/kg.
Where [23] appears, read: Table 8 dose response, 1 hour post-injection, 20 mg/kg.
Where [24] appears, read: Table 9 comparison, 5 mg/kg s.c., @ - 2′ (2 h).
Setting [25] is: Table 9 comparison, 5 mg/kg s.c., @ - 15″ ([…]).
The mark [26] stands for this setting: Table 9 comparison, 5 mg/kg s.c., @ - 30″ (0.5 h).

Marks after values point to notes of the source that are not given here.

In the case of `c1cc(CN2CCCNCCNCCCNCC2)ccc1CN1CCCNCCNCCCNCC1` [AMD3100, plerixafor, reference compound], in data set [1] (setting [9]), the “BFU (BFU-E), Mean” value is on record as 207.7 per mL of blood; the “GEMM (CFU-GEMM), Mean” value is 138.5 per mL of blood; the “GM (CFU-GM), Mean” value is listed as 1950.3 per mL of blood.

As for `NCCCCN(Cc1nc2ccccc2[nH]1)[C@H]1CCCc2cccnc21` [Mavorixafor, mavorixafor], in data set [2], the “Overall tolerability in clinical studies” value is given as “generally well tolerated”. Further, in data set [3], the “Increase in circulating white blood cells (leukocytosis) above baseline” value was 2.9 fold. Moreover, the Terminal half-life result in data set [4] is given as “approximately 14.5 hrs”. The “Time at which increases typically peaked” value in data set [5] (5, 15, 35 mg/kg oral) is 12 h. For the same molecule, the Other hematological effects result in data set [5] (single oral dose 5, 15, 35 mg/kg) is recorded as “No other hematological effects were observed”. Also, in data set [6] (100 mg/kg dose group), the “Hematology results after the 14-day recovery period” value is recorded as “returned to within normal levels”. In addition, the “Lymphocytes (abs), increase” value in data set [6] (females, 10 mg/kg/d, Day 28) is “F incr 1.4×”; in data set [6] (setting [11]), “F incr 1.6×†”; in data set [6] (setting [12]), “F incr 1.4×†”; in data set [6] (males, 10 mg/kg/d, Day 28) it was “M incr 1.3×;”; in data set [6] (males, 30 mg/kg/d, Day 28), “M incr 1.6×;”; in data set [6] (setting [13]), “M incr 2.3×†;”. Also, the “Monocytes (abs), increase” value in data set [6] (setting [10]) is reported as “F incr 1.6×†”; in data set [6] (setting [11]), “F incr 1.9×†”; in data set [6] (setting [12]), “F incr 2.4×†”; in data set [6] (males, 10 mg/kg/d, Day 28), “M incr 1.2×;”; in data set [6] (males, 30 mg/kg/d, Day 28), “M incr 1.3×;”; in data set [6] (setting [13]) it was “M incr 1.9×†;”. Further, the “Neutrophils (abs), increase” value in data set [6] (setting [10]) is recorded as “F incr 1.9×†”; in data set [6] (setting [11]) it was “F incr 2.3×†”; in data set [6] (setting [12]) it was “F incr 2.8×†”; in data set [6] (males, 10 mg/kg/d, Day 28) it was “M incr 1.2×;”; in data set [6] (males, 30 mg/kg/d, Day 28) it was “M incr 1.2×;”; in data set [6] (males, 100 mg/kg/d, Day 28), “M incr 1.8×;”. For the same molecule, the “Reticulocytes, decrease” value in data set [6] (setting [12]) is given as “F decr 0.24†”. Also, the “Mode of CXCR4 inhibition” value in data set [7] is listed as “allosteric inhibitor”. For the same molecule, the “BFU (BFU-E), Mean” value in data set [1] (setting [14]) is 165.3 per mL of blood; in data set [1] (setting [15]), 99.9 per mL of blood; in data set [1] (setting [16]) it was 148.8 per mL of blood; in data set [1] (setting [17]), 84.6 per mL of blood; in data set [1] (setting [18]), 230.4 per mL of blood; in data set [1] (setting [19]), 235.1 per mL of blood. Further, the “BFU (BFU-E), Mean” value was 143.8 per mL of blood in data set [1] (setting [20]); 181.6 per mL of blood in data set [1] (setting [21]); 268.1 per mL of blood in data set [1] (setting [22]); 261.4 per mL of blood in data set [1] (setting [23]); 108.5 per mL of blood in data set [1] (setting [24]); 188.9 per mL of blood in data set [1] (setting [25]). Also, the “BFU (BFU-E), Mean” value in data set [1] (setting [26]) is listed as 151.9 per mL of blood; in data set [1] (setting [9]), 144.3 per mL of blood. Further, the “GEMM (CFU-GEMM), Mean” value in data set [1] (setting [14]) was 68.9 per mL of blood; in data set [1] (setting [15]) it was 37.6 per mL of blood; in data set [1] (setting [16]) it was 65.6 per mL of blood; in data set [1] (setting [17]), 37.7 per mL of blood; in data set [1] (setting [18]) it was 99.6 per mL of blood; in data set [1] (setting [19]) it was 103.1 per mL of blood. Besides, the “GEMM (CFU-GEMM), Mean” value in data set [1] (setting [20]) is 53.3 per mL of blood; in data set [1] (setting [21]), 141.0 per mL of blood; in data set [1] (setting [22]) it was 224.4 per mL of blood; in data set [1] (setting [23]), 145.0 per mL of blood; in data set [1] (setting [24]), 62.4 per mL of blood; in data set [1] (setting [25]) it was 93.8 per mL of blood. The “GEMM (CFU-GEMM), Mean” value was 79.0 per mL of blood in data set [1] (setting [26]) and 102.2 per mL of blood in data set [1] (setting [9]). For the same molecule, the “GM (CFU-GM), Mean” value in data set [1] (setting [14]) is listed as 897.5 per mL of blood; in data set [1] (setting [15]), 387.5 per mL of blood; in data set [1] (setting [16]), 785.1 per mL of blood; in data set [1] (setting [17]) it was 386.3 per mL of blood; in data set [1] (setting [18]) it was 1273.8 per mL of blood; in data set [1] (setting [19]) it was 866.0 per mL of blood. The “GM (CFU-GM), Mean” value in data set [1] (setting [20]) was 428.0 per mL of blood; in data set [1] (setting [21]), 1119.8 per mL of blood; in data set [1] (setting [22]) it was 1444.2 per mL of blood; in data set [1] (setting [23]), 1314.2 per mL of blood; in data set [1] (setting [24]), 619.6 per mL of blood; in data set [1] (setting [25]) it was 588.3 per mL of blood. In addition, the “GM (CFU-GM), Mean” value in data set [1] (setting [26]) is 705.9 per mL of blood; in data set [1] (setting [9]) it was 761.4 per mL of blood.

B1: filgrastim (protein, chains of the INN, looked up)
chain: MTPLGPASSLPQSFLLKCLEQVRKIQGDGAALQEKLCATYKLCHPEELVLLGHSLGIPWAPLSSCPSQALQLAGCLSQLHSGLFLYQGLLQALEGISPELGPTLDTLQLDVADFATTIWQQMEELGMAPALQPTQGAMPAFASAFQRRAGGVLVASHLQSFLEVSYRVLRHLAQP
modifications: N-terminal methionine, recombinant
notes: granulocyte colony-stimulating factor, standard of care for severe chronic neutropenia
Take B1: in data set [8], the “Bone pain incidence, as high as” value is on record as 66%. Moreover, the “Bone pain incidence reported on label” value in data set [8] (label) is given as 24%.

B2: pegfilgrastim (protein, chains of the INN, looked up)
chain: TPLGPASSLPQSFLLKCLEQVRKIQGDGAALQEKLCATYKLCHPEELVLLGHSLGIPWAPLSSCPSQALQLAGCLSQLHSGLFLYQGLLQALEGISPELGPTLDTLQLDVADFATTIWQQMEELGMAPALQPTQGAMPAFASAFQRRAGGVLVASHLQSFLEVSYRVLRHLAQP
modifications: PEG conjugate, N-terminal methionine
notes: pegylated G-CSF
For the molecule B2, the “Bone pain incidence, as high as” value in data set [8] is listed as 59%. Also, the “Severe bone pain incidence” value in data set [8] (Kirshner et al. 2012) is listed as 24%.
